Data as given in ChEMBL document CHEMBL1201862, “PubChem BioAssay data set” (2004).
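Assay format: 96-well plates, 48-hour exposure. GI50 marks 50% less growth.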 The source made the active and inactive calls. Cut-off read from the data, not from the text of the source: active = GI50 up to about 1.1 µM and inactive = higher.

Legend:
Assay in all cases: growth of human tumour cells (NCI), 48 h
[1] = system: MDA-N
[2] = system: ACHN
[3] = system: SF-295
[4] = system: PC-3
[5] = system: SNB-75
[6] = system: OVCAR-4
[7] = system: OVCAR-8
[8] = system: IGROV-1
[9] = system: MCF7
[10] = system: SW-620
[11] = system: A549
[12] = system: DU-145
[13] = system: COLO 205
[14] = system: RPMI-8226
[15] = system: Malme-3M
[16] = system: NCI/ADR-RES
[17] = system: CAKI-1
[18] = system: EKVX
[19] = system: A498
[20] = system: MDA-MB-231
[21] = system: LOX IMVI
[22] = system: SF-539
[23] = system: KM12
[24] = system: NCI-H460
[25] = system: SR
[26] = system: SK-MEL-5
[27] = system: SK-MEL-28
[28] = system: NCI-H23
[29] = system: OVCAR-3
[30] = system: SNB-19
[31] = system: MDA-MB-435
[32] = system: OVCAR-5
[33] = system: UACC-257
[34] = system: K562
[35] = system: U-251
[36] = system: TK-10
[37] = system: RXF 393
[38] = system: UO-31
[39] = system: CCRF-CEM
[40] = system: M14
[41] = system: T47D
[42] = system: HCC 2998
[43] = system: HCT-116
[44] = system: HL-60
[45] = system: SK-MEL-2
[46] = system: SK-OV-3
[47] = system: SN12C
[48] = system: NCI-H226
[49] = system: HT-29
[50] = system: Hs-578T
[51] = system: NCI-H522
[52] = system: 786-0
[53] = system: HOP-92
[54] = system: HCT-15
[55] = system: MOLT-4
[56] = system: HOP-62
[57] = system: SF-268

O=C1c2ccccc2CC12Cc1cc3c(cc1C2)CCC3
GI50 [1]: 37.5 µM (inactive)
GI50 [2]: 43.3 µM (inactive)
GI50 [3]: > 100 µM (inactive)
GI50 [4]: 39.8 µM (inactive)
GI50 [5]: 33.3 µM (inactive)
GI50 [6]: > 100 µM (inactive)
GI50 [7]: > 100 µM (inactive)
GI50 [8]: 87.3 µM (inactive)
GI50 [9]: 34.5 µM (inactive)
GI50 [10]: 78.2 µM (inactive)
GI50 [11]: > 100 µM (inactive)
GI50 [12]: > 100 µM (inactive)
GI50 [13]: 31.3 µM (inactive)
GI50 [14]: 32 µM (inactive)
GI50 [15]: 22.7 µM (inactive)
GI50 [16]: 44 µM (inactive)
GI50 [17]: > 100 µM (inactive)
GI50 [18]: 99.3 µM (inactive)
GI50 [19]: 84.1 µM (inactive)
GI50 [20]: > 100 µM (inactive)
GI50 [21]: 57.1 µM (inactive)
GI50 [22]: > 100 µM (inactive)
GI50 [23]: 53.5 µM (inactive)
GI50 [24]: 39.9 µM (inactive)
GI50 [25]: 16.7 µM (inactive)
GI50 [26]: 20.5 µM (inactive)
GI50 [27]: 45.8 µM (inactive)
GI50 [28]: > 100 µM (inactive)
GI50 [29]: 31.6 µM (inactive)
GI50 [30]: > 100 µM (inactive)
GI50 [31]: 34 µM (inactive)
GI50 [32]: > 100 µM (inactive)
GI50 [33]: 31.9 µM (inactive)
GI50 [34]: 86.7 µM (inactive)
GI50 [35]: 43.1 µM (inactive)
GI50 [36]: > 100 µM (inactive)
GI50 [37]: 40.6 µM (inactive)
GI50 [38]: 69.3 µM (inactive)
GI50 [39]: 55.3 µM (inactive)
GI50 [40]: 19.5 µM (inactive)
GI50 [41]: > 100 µM (inactive)
GI50 [42]: 57.5 µM (inactive)
GI50 [43]: 30.6 µM (inactive)
GI50 [44]: 24 µM (inactive)
GI50 [45]: 31.2 µM (inactive)
GI50 [46]: > 100 µM (inactive)
GI50 [47]: 59.7 µM (inactive)
GI50 [48]: 15.9 µM (inactive)
GI50 [49]: 21.9 µM (inactive)
GI50 [50]: > 100 µM (inactive)
GI50 [51]: 30.5 µM (inactive)
GI50 [52]: 94.4 µM (inactive)
GI50 [53]: 37.6 µM (inactive)
GI50 [54]: 43.2 µM
GI50 [55]: 22.6 µM (inactive)
GI50 [56]: > 100 µM (inactive)
GI50 [57]: > 100 µM (inactive)
